Tests used:
CD34^+38^−90^+ cells = assay: Annexin V apoptosis assay in HSCs; type: cell-based, human; details: annexin V^+ CD34^+38^−90^+ cells
From the text: PE-Cyanine 7 or APC-EFLUOR® 780, APC- or PE-conjugated antibodies directed to human CD34 (BD Biosciences 560710 or 555824), CD38 (eBiosciences, San Diego, Calif. 47-0389-42), CD90 (BioLegend 328120), CD45RA (eBiosciences 17-0458-42), CD49f (BD Biosciences 555736), CD45 (BD 55485 or Biolegend 304026), CD33 (eBiosciences 25-0338-42), CD19 (BD Biosciences 557791), or CD3 (BD Biosciences 555340). Cells (˜5×10^5−1×10^6) were used to label with antibodies as per manufacturer instructions with the appropriate isotype controls. For phospho-flow, primary antibodies phospho-p38 (Thr180/Tyr182; 4092S), phospho-p44/42 MAPK (ERK ½) (Thr202/Tyr204; 4094S), and phospho-JNK (Thr183-Tyr185 PE conjugate; 5755S) (all from Cell Signaling) were used for staining overnight followed by wash and secondary antibody stain including Goat anti-Rabbit IgG (H+L) or Goat anti-Rabbit IgG (H+L) or Pacific Blue (P-10994) antibody. Apoptosis assay was performed using PE Annexin V Apoptosis Detection Kit (BD Biosciences 559763) according to the manufacturer's instructions. Total ROS and mitochondrial specific ROS were detected using 10 μM CM-H2DCFDA (ThermoFisher Scientific C6827) and 5 μM MITOSOX™ Red (Red Mitochondrial Superoxide Indicator) (ThermoFisher Scientific M36008) respectively, following manufacturer's instructions.

CD34^+38^−90^+ HSCs = assay: cell cycle analysis (Ki-67 / Hoechst) of HSCs; type: cell-based, human
human CD34^+ cells = assay: GFP marking in human grafts of NSG mice; type: in vivo; details: limiting dilution transplant; also long-termed secondary human grafts
From the text: NOD.Cg-Prkdcscid Il2rgtm1Wjl/SzJ (NSG) mice were purchased from The Jackson Laboratory (Bar Harbor, Me.). All animals were bred and maintained in a specific pathogen-free environment and all experiments were approved by the Institutional Animal Care and Use (IACUC) Committee. Male and female NSG mice aged 8 to 14 weeks old were fed doxycycline chow (TestDiet; Modified Prolab RMH-1500 with 0.0625% doxycycline) a week prior to, during and for 2 weeks post irradiation. Human engraftment was analyzed in bone marrow (BM), via BM aspirates performed at 6 and 12 weeks from left and right femurs. After sacrifice at 24 weeks, marrow from all of the primary mice (1 T) was harvested. Peripheral blood analysis was also performed in some experiments. Secondary transplants (2 T) were performed after mouse CD45^+ cells were depleted from BM harvested from each 1 T mouse separately, using Biotin Rat Anti-Mouse CD45 (BD Biosciences 553078) and Streptavidin Particles Plus-DM (BD Biosciences 557812) and injected into one irradiated (280 cGy) secondary NSG mouse. […] Total ROS and mitochondrial specific ROS were detected using 10 μM CM-H2DCFDA (ThermoFisher Scientific C6827) and 5 μM MITOSOXTM Red (Red Mitochondrial Superoxide Indicator) (ThermoFisher Scientific M36008) respectively, following manufacturer's instructions.

[1] = before the first HSC division in vitro (24 h)

## Cc1ccc(-n2nc(C(C)(C)C)cc2NC(=O)Nc2ccc(OCCN3CCOCC3)c3ccccc23)cc1 [p38i, 1-[5-tert-butyl-2-(4-methylphenyl)pyrazol-3-yl]-3-[4-(2-morpholin-4-ylethoxy)naphthalen-1-yl]urea]
CD34^+38^−90^+ cells
  apoptosis in the HSC compartment: no difference
CD34^+38^−90^+ HSCs; HSCs transduced when actively cycling (RV)
  percentage of cells in the different phases of cell cycle: no difference
CD34^+38^−90^+ HSCs; after HSCs progressed through cell cycle
  effect on increasing the G0 population: lost
CD34^+38^−90^+ HSCs; [1]
  proportion of HSCs in the G0 quiescent phase: significantly increased
  proportion of HSCs in the S-G2M phase: decreased
Human CD34^+ cells
  GFP marking: did not have any effect

— patent US11518981B2, “Methods of enhancing engraftment activity of hematopoietic stem cells” (CHILDREN'S HOSPITAL MEDICAL CENTER, priority 2017, dated 2022)
